Data as given in patent publication US20130053435A1, “Methods of Treating Alcohol Intoxication, Alcohol Use Disorders and Alcohol Abuse Which Comprises the Administration of Dihydromyricetin” (priority 2011, published 2013).
Read-outs that look alike come from different tables or passages of the source.

Key:
[1] = system: T1, GABAARs; experiment: Whole-cell patch-clamp, DGCs in hippocampal slices, acute drug application; format: cell-based, rat; conditions: comparative experiments, rat hippocampal slices
T1 construct: DHM-enhanced mIPSCs; other: control (vehicle) cultured neurons, DIV14; other: cultured neurons with EtOH exposure/withdrawal (60 mM, 30 min, 24 hr); EtOH-potentiated mIPSCs; effect on post-synaptic currents (mIPSCs); other: comparative experiments, rat hippocampal slices
Procedure: (§1) Transverse slices (400 μm) of dorsal hippocampus were obtained with a Vibratome (VT 100, Technical Products International, St. Louis, Mo.) and standard techniques known in the art. Slices were continuously perfused with artificial cerebrospinal fluid (ACSF).
(§2) Signals were recorded in voltage-clamp mode with a […] amplifier (Molecular Devices, Sunnyvale, Calif.). Whole cell access resistances were in the range of <25 MΩ before electrical compensation by about 70%. During voltage-clamp recordings, access resistance was monitored by measuring the size of the capacitative transient in response to a 5 mV step command and the data were abandoned if changes >20% were encountered. At least 10 min was allowed for equilibration of the pipette solution with the intracellular milieu before commencing mIPSC recordings.
(§3) Data were analyzed using the Clampfit (Version 9.0, Molecular Devices) and the MiniAnalysis Program (versions 6.0.7, Synaptosoft, Decatur, Ga.).
(§4) The MiniAnalysis program (Synaptosoft, Decatur, Ga.) was used to analyze mIPSCs. Itonic is the averaged baseline currents of a given recording period. Itonic amplitude was calculated as the difference between the holding currents measured before and after picrotoxin (100 μM) or bicuculline (10 μM). […] Briefly, the recordings were low-pass filtered off-line (Clampfit software) at 2 kHz. The mIPSCs were detected (Mini Analysis Program, version 6.0.7) with threshold criteria of 8 pA amplitude and 20 pA*ms charge transfer. The frequency of mIPSCs was determined from all automatically detected events in a given 100 s recording period. For kinetic analysis, only single event mIPSCs with a stable baseline, sharp rising phase (10 to 90% rise time), and exponential decay were chosen during visual inspection of the recording trace. Double and multiple peak mIPSCs were excluded. At least 100 individual mIPSC events were recorded under each experimental condition. The mIPSC kinetics was obtained from analysis of the averaged chosen single events aligned with half rise time in each cell. Decay time constants were obtained by fitting a double exponential to the falling phase of the averaged mIPSCs. Itonic magnitudes were obtained from the averaged baseline current of a given recording period. Itonic amplitude was calculated as the difference between the holding currents measured before and after the application of picrotoxin (50 μM) or bicuculline (10 μM). […] The investigator performing the recordings and mIPSC analysis was blind to the treatment (vehicle, EtOH, E+D, or D) that the rats received.
(§5) As performed previously, whole-cell patch-clamp recordings in dentate gyms granule cells (DGCs) from hippocampal slices in vitro were conducted.

[2] = system: T2, GABAARs; experiment: as above; format: cell-based, rat; conditions: comparative experiments, rat hippocampal slices
T2 construct: DHM-enhanced Itonic; EC50 on GABAAR-mediated Itonic; other: control (vehicle) cultured neurons, DIV14; other: cultured neurons with EtOH exposure/withdrawal (60 mM, 30 min, 24 hr); EtOH-potentiated Itonic; GABAAR-mediated Ito
Procedure: as §1, §2, §3, §4, §5

[3] = system: T3, GABAARs; experiment: as above; format: cell-based, rat; conditions: in the presence of 60 mM EtOH, rat hippocampal slices
T3 construct: other: in the presence of 60 mM EtOH, rat hippocampal; shift of the GABA concentration-response curve
Procedure: as §1, §2, §3, §4, §5

[4] = system: benzodiazepine site of GABAARs; experiment: [3H]flunitrazepam binding in rat cortical membrane homogenates; conditions: comparative experiments
Procedure: Standard procedures for preparation of rat cortical membranes for radioligand binding assays were conducted as previously described with modifications in speed and number of centrifugation and washes, and buffer compositions. […] Naïve rat cortex was dissected from brain and homogenized in 0.32 M sucrose, 10 mM HEPES buffer (pH 7.4), and centrifuged at 650×g, 4° C. The subsequent supernatant was centrifuged at 150,000×g to collect the desired membrane-containing pellet. The pellet was washed and centrifuged two more times, first using ice-cold water and second using membrane buffer containing 50 mM KH2PO4, 1 mM EDTA, 2 mM benzamidine HCl, 0.5 mM DTT, 0.1 mM benzethonium HCl, 0.01% bacitracin, 0.2 PMSF (pH 7.4), and the resulting pellet was frozen. On the day of binding assay, the pellet was homogenized in assay buffer containing 50 mM KH2PO4, 1 mM EDTA, 200 mM KCl (pH 7.4) and centrifuged, and resuspended in fresh assay buffer to a final protein concentration of 1 mg/ml. […] Specific binding was defined as the total amount bound (zero unlabeled ligand) minus the binding in the presence of 10 μM final concentration flurazepam (Sigma). Data was analyzed with GraphPad Prism 4.0 Software (San Diego, Calif.) to determine IC50 (One-site competition equation) and Hill slope (Sigmoidal Dose-Response equation). Experiments were conducted in triplicate.

[5] = system: T1, GABAARs; experiment: Whole-cell patch-clamp, cultured hippocampal neurons, acute drug application; format: cell-based, rat; conditions: DHM 1 μM + 10 μM flumazenil
Procedure: (§6) Hippocampal neurons from embryonic day 18 rats were prepared by papain dissociation (Worthington Biochemical, Lakewood, N.J.) and cultured in neurobasal medium and B27 supplement (Invitrogen). Cultures were kept at 37° C. in a 5% CO2 humidified incubator as described previously. See Shen, Y., et al. (2011) Mol Pharmacol 79:432-442.
(§7) Hippocampal neurons from embryonic day 18 SD rats were prepared by papain dissociation (Worthington Biochemical, Lakewood, N.J.) and cultured in neurobasal medium (Invitrogen) and B27 supplement as previously reported. See Stowell J N and Craig A M (1999) Neuron 22(3):525-536. Briefly, embryos were removed from maternal rats anesthetized with isoflurane and euthanized by decapitation. Hippocampus were dissected and placed in Ca^2+- and Mg^2+-free HEPES-buffered Hank's buffered salt solution (pH 7.45). Tissues were dissociated by papain digestion followed by trituration through a Pasteur pipette and papain inhibitor treatment. Cells were pelleted and resuspended in neurobasal medium containing 2% B27 serum-free supplement, 100 U/ml penicillin, 100 μg/ml streptomycin, 0.5 mM glutamine (all from Invitrogen), and 10 μM glutamate (Sigma).
(§8) Dissociated neurons were then plated at a density of 0.3×10^5 cells/cm^2 onto 12 mm round coverslips in 24-well plates (for patch-clamp recording) and/or at a density of 0.5×10^5 cells/cm^2 in 6-well plates (for Western blot and biotinylation assays) coated with poly-D-lysine (Sigma, 50 μg/ml). Cultures were kept at 37° C. in a 5% CO2 humidified incubator. Thereafter, one third to half of the medium was replaced twice a week with neurobasal culture medium containing 2% B27 supplement, and 0.5 mM glutamine.
(§9) Control neurons were treated with corresponding vehicle as same procedure as EtOH-treated neurons. The concentration of 60 mM EtOH was selected in view of prior experiments. See Liang J et al (2007). Specifically, the concentration of 60 mM EtOH used to treat cultured neurons was chosen to match blood levels measured in adult rats after intoxication with gavage of 5 g/kg, which produced about 60 mM blood peak plasma [EtOH] lasting for about 2 to 3 hr and induced significant plasticity in GABAARs and tolerance.
(§10) Then, immediately before electrophysiological recording, cells grown on coverslips were transferred to a perfusion chamber (Warner Instruments) and visualized with an inverted microscope (TE200, Nikon). Whole-cell patch-clamp recordings were obtained from cultured neurons under voltage-clamp mode at room temperature (22-25° C.), at a holding potential of −70 mV. Cells were perfused with an extracellular solution (137 mM NaCl, 5 mM KCl, 2 mM CaCl2, 1 mM MgCl2, 20 mM glucose and 10 mM HEPES (310-320 Osm, pH adjusted to 7.40 with NaOH)). Glass pipettes were filled with the same internal solution as that in slice recordings, with an input resistance of 4-7 MΩ. GABAAR-mediated mIPSCs were recorded using the same pharmacological method as mentioned above. […] Electrical signals were amplified using a Multiclamp 200 B amplifier (Molecular Devices, USA). After establishing the whole-cell configuration, at least 10 min were allowed to elapse before the application of drug to allow the membrane patch to stabilize and exchange of ions between the recording electrode and the cytosol to occur. Data were acquired with pClamp software (Version 10.0, Molecular Devices, USA), digitized at 20 kHz (Digidata 1440A, Molecular Devices), and analyzed using the Clampfit software (Version 10.0, Molecular Devices) and the Mini Analysis Program (versions 6.0.7, Synaptosoft, Decatur, Ga.) using methods known in the art. See Hamann M, et al. (2002) Neuron 33(4):625-633; Stell B M and Mody I (2002) J Neurosci 22(10): RC223; and Liang (2007).

[6] = system: T2, GABAARs; experiment: as above; format: cell-based, rat; conditions: DHM 1 μM + 10 μM flumazenil
Procedure: as §6, §7, §8, §9, §10

[7] = system: EtOH-induced LORR in rats
Procedure: See Kakihana R, et al. (1966) Science 154(756):1574-1575). Briefly, after drug injection, rats were placed in the supine position in a V-shaped support. LORR onset time was taken from the endpoint of drug injection (i.p.). LORR duration ended when the animal was able to flip over three times in 30 s. LORR assays were blindly performed. LORR durations were reported as mean (min)±SEM.
Further LORR assays were conducted as follows.
Additional pre-treatment and post-treatment experiments were also conducted.
See Hunkeler, W., et al. (1981) Nature 290:514-516.

In the case of `O=c1c(O)c(-c2ccc(O)c(O)c2)oc2cc(O)cc(O)c12` [quercetin, reference compound], the “effect on post-synaptic currents (mIPSCs)” value [1] is reported as “no effect”, the “effect on extrasynaptic GABAAR-mediated tonic current (Itonic)” value [2] is reported as “no effect” and the “block of EtOH potentiation of GABAAR-mediated Itonic and mIPSCs” value [3] is reported as “do not”. The “binding to GABAARs in [3H]flunitrazepam binding assay” value (“binding to GABAARs” below) [4] was “do not bind”.

In the case of `O=c1c(-c2ccc(O)cc2)coc2c([C@@H]3O[C@H](CO)[C@@H](O)[C@H](O)[C@H]3O)c(O)ccc12` [puerarin], the “binding to GABAARs” value [4] is reported as “do not bind”.

`O=c1c(-c2ccc(O)cc2)coc2cc(O[C@@H]3O[C@H](CO)[C@@H](O)[C@H](O)[C@H]3O)ccc12` [daidzin, reference compound] was tested, and the “effect on post-synaptic currents (mIPSCs)” value [1] was “significantly potentiated”, the “effect on extrasynaptic GABAAR-mediated tonic current (Itonic)” value [2] was “no effect” and the “block of EtOH potentiation of GABAAR-mediated Itonic and mIPSCs” value [3] was “do not”. The “binding to GABAARs” value [4] was “bind GABAARs”.

For `O=c1c(-c2ccc(O)cc2)coc2cc(O)cc(O)c12` [genistein], the “binding to GABAARs” value [4] was “do not bind”.

In the case of `O=c1c(-c2ccc(O)cc2)coc2cc(O)ccc12` [daidzein], the “binding to GABAARs” value [4] is reported as “bind GABAARs”.

With `CCOC(=O)c1ncn2c1CN(C)C(=O)c1cc(F)ccc1-2` [flumazenil, reference compound] the “DHM-enhanced mIPSCs” value [5] was 125.7±3.9%, the “DHM-enhanced Itonic” value [6] was 143.0±3.2% and the LORR duration ([7]; flumazenil 10 mg/kg + DHM 3 mg/kg + EtOH) was 56.1 ± 4.6 min. It also gave an LORR duration ([7]; flumazenil 10 mg/kg + DHM 10 mg/kg + EtOH) of 29.3 ± 4.8 min, an LORR duration ([7]; flumazenil 10 mg/kg co-injected with EtOH, no DHM) of 71.1 ± 4.8 min and an LORR duration ([7]; flumazenil 30 mg/kg + DHM 3 mg/kg + EtOH) of 58.2 ± 3.9 min.

With `O=c1c(O)c(-c2cc(O)c(O)c(O)c2)oc2cc(O)cc(O)c12` [myricetin] the “binding to GABAARs” value [4] was “do not bind”.
